What was measured:
[1] = target: recombinant human 11β-HSD1 (Homo sapiens, UniProt P28845); test: Enzyme activity assay on human 11β-HSD1 (HTRF, cortisol production); type: biochemical; settings: recombinant human 11β-HSD1, 5 μM cortisone as substrate, 2 hours at 37° C., read-out: humanIC50
Experimental: Evaluation of 11β-HSD1 Inhibitors (Enzyme Activity Assay on Human 11β-HSD1)
Enzymatic activity for human 11β-HSD1 was determined in a 10 μl final volume of assay mixture containing 50 mM sodium phosphate buffer (pH 7.6), 1 mg/ml bovine serum albumin, 0.42 mg/ml NADPH, 1.26 mg/ml glucose-6-phosphate, glucose-6-phosphate dehydrogenase, test compound, recombinant human 11β-HSD1, and 5 μM cortisone as substrate. The reaction was started with the addition of cortisone. After incubation for 2 hours at 37° C., 5 μl of europium cryptate-labelled anti-cortisol antibody and 5 μl of XL665-labeled cortisol were added. After further incubation for 2 hours at room temperature, the homogeneous time-resolved fluorescence (HTRF) signal was measured. The cortisol production was quantitated by a standard curve generated with several known concentrations of cortisol in each assay.
(§1) The amount of cortisol production without compounds served as control, and the percent inhibition by test compound at each concentration was calculated. The IC50 value of the compound for 11β-HSD1 was obtained using the inhibition curve generated by plotting the percent inhibition versus the concentration of test compound.

[2] = target: recombinant mouse 11β-HSD1 (Mus musculus, UniProt P50172); test: Enzyme activity assay on mouse 11β-HSD1 (HTRF, corticosterone production); type: biochemical; settings: recombinant mouse 11β-HSD1, 2 μM 11-dehydrocorticosterone as substrate, 2 hours at 37° C., read-out: mouseIC50
Sequence of recombinant mouse 11β-HSD1 (P50172 whole entry): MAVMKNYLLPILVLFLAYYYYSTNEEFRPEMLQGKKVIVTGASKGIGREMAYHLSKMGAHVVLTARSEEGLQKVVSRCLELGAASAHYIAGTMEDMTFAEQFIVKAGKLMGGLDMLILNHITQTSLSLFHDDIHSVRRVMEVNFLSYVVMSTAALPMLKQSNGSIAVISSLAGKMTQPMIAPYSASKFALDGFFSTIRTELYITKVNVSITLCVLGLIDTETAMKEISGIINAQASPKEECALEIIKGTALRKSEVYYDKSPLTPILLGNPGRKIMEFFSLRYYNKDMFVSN
Experimental: Evaluation of 11β-HSD1 Inhibitors (Enzyme Activity Assay on Mouse 11β-HSD1)
Enzymatic activity for mouse 11β-HSD1 activity was determined in a 10 μl final volume of assay mixture containing 50 mM sodium phosphate buffer (pH 7.6), 1 mg/ml bovine serum albumin, 0.42 mg/ml NADPH, 1.26 mg/ml glucose-6-phosphate, glucose-6-phosphate dehydrogenase, test compound, recombinant mouse 11β-HSD1, and 2 μM 11-dehydrocorticosterone as substrate. The reaction was started with the addition of 11-dehydrocorticosterone. After incubation for 2 hours at 37° C., 5 μl of europium cryptate-labelled anti-cortisol antibody and 5 μl of XL665-labeled cortisol were added. After further incubation for 2 hours at room temperature, the HTRF signal was measured. The corticosterone production was quantitated by a standard curve generated with several known concentrations of corticosterone in each assay.
as §1, with “corticosterone” for “cortisol”, “by” for “by test”

Sequence of recombinant human 11β-HSD1 (P28845 whole entry): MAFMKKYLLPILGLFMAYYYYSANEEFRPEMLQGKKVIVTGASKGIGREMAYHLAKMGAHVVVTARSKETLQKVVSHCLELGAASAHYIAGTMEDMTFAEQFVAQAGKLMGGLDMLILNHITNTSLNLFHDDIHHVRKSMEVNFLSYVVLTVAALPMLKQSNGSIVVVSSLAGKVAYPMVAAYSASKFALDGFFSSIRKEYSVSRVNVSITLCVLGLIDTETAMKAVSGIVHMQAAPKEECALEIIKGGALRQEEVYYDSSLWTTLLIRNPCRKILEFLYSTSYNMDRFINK

Question: Which results are given for CC(C)CSc1c(OCC(C)(C)CCCN)noc1C(=O)NC1C2CC3CC(C2)CC1C3 (stereo not drawn) [II-72]?
Answer: IC50 [1]: 77 nM; IC50 [2]: 6.5 nM

Question: How did the IC50 [1] turn out when CC(C)Sc1c(OCC(F)(F)C(=O)NCCN)noc1C(=O)NC1C2CC3CC(C2)CC1C3 (stereo not drawn) [II-25] was run?
Answer: 51 nM

Question: And the IC50 [2]?
Answer: 160 nM

Question: CC(C)Sc1c(OCC2CCNCC2)noc1C(=O)NC1C2CCCC1CCC2 (stereo not drawn) [Compound 12b] was tested. Which IC50 [1] did it give?
Answer: 140 nM

Question: And the IC50 [2]?
Answer: 1600 nM

Question: For COCC(C)(C)COc1noc(C(=O)NC2C3CC4CC(C3)CC2C4)c1SC(C)C (stereo not drawn) [II-117], which IC50 [1] is on record?
Answer: 95 nM

Question: And the IC50 [2]?
Answer: 21 nM

Question: Which IC50 [1] does the source give for CC(C)Sc1c(OCC(C)(C)NC(=O)NCCN)noc1C(=O)NC1C2CC3CC(C2)CC1C3 (stereo not drawn) [Compound 27] here?
Answer: 260 nM

Question: What about the IC50 [2] of the same molecule?
Answer: 38 nM

Question: With CC(C)Sc1c(OCC(C)(C)N)noc1C(=O)NC1C2CC3CC(C2)CC1C3 (stereo not drawn) [Compound 29] as the molecule, how does the IC50 [1] read?
Answer: 43 nM

Question: What about the IC50 [2] of the same molecule?
Answer: 330 nM

Question: For CC(C)Sc1c(OCC(C)(C)C#N)noc1C(=O)N[C@H]1C2CC3CC1C[C@](O)(C3)C2 [II-130], which IC50 [1] is on record?
Answer: 86 nM

Question: What about the IC50 [2] of the same molecule?
Answer: 33 nM

Question: Which IC50 [1] does the source give for O=C(NC1(COc2noc(C(=O)N[C@H]3C4CC5CC3C[C@](O)(C5)C4)c2SC2CCCC2)CC1)c1ccc(Cl)cc1Cl [II-150] here?
Answer: 10 nM

Question: What about the IC50 [2] of the same molecule?
Answer: 27 nM

Question: How did the IC50 [1] turn out when CCCSc1c(OCC2CCNCC2)noc1C(=O)NC1C2CC3CC(C2)CC1C3 (stereo not drawn) [Compound 9c] was run?
Answer: 180 nM

Question: And the IC50 [2]?
Answer: 500 nM

Question: For CC(C)Sc1c(OCC(C)(C)C(=O)N2CCNCC2)noc1C(=O)NC1C2CC3CC(C2)CC1C3 (stereo not drawn) [II-18], which IC50 [1] is on record?
Answer: 35 nM

Question: And the IC50 [2]?
Answer: 49 nM

Question: What does the source list for CC(C)Sc1c(OCC(C)(C)NC(=O)C2(N)CC2)noc1C(=O)NC1C2CC3CC(C2)CC1C3 (stereo not drawn) [II-49]?
Answer: IC50 [1]: 71 nM; IC50 [2]: 23 nM

Question: With CC(C)(COc1noc(C(=O)N[C@H]2C3CC4CC2C[C@](O)(C4)C3)c1SC1CCCC1)N1CCOC1=O [II-153] as the molecule, how does the IC50 [1] read?
Answer: 25 nM

Question: And the IC50 [2]?
Answer: 14 nM

Source: patent US8017638B2, “Isoxazole derivative and isothiazole derivative having inhibitory activity on 11β-hydroxysteroid dehydrogenase type 1” (Shionogi & Co., Ltd., priority 2006, dated 2011)
